A word on the pIC50: it is the IC50 on a negative log10 scale, so that one unit is a factor of ten.

This note sets out measurements from patent publication US9708336B2, “Metallo-beta-lactamase inhibitors” (priority 2014, dated 2017).

Each structure is given as a SMILES string. pIC50: −log10 of the molar value. Where two headings read alike, the source gives them in different places.

One assay has as its target NDM-1 (Klebsiella pneumoniae, UniProt C7C422). The assay can be described thus: biochemical. It is filed as biochemical.
In assay [1] the test system is Klebsiella pneumoniae expressing VIM-1 (IHMA599644). The assay can be described thus: Antibiotic potentiation activity: synergistic concentration (MITC95) with imipenem, OD600 growth. It is filed as cell-based. Summed up:
(§1)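 Absorbance after a 22–24 h, 35 °C incubation served as the read-out. Wells held bacteria (saline suspension diluted 1:100 into 1.1× CAMHB), imipenem at 4 μg/ml final or optionally 1 μg/ml, and test compound.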

Assay [2] deals with Escherichia coli expressing NDM-1 (CLB30016). Described as above. It is filed as cell-based. An outline of the steps: as §1
The subject of assay [3] is Serratia marcescens expressing IMP-1 (CL5741). The description is as above. It is filed as cell-based. An outline of the steps: as §1
Another assay deals with VIM-1 (Pseudomonas aeruginosa (strain ATCC 15692 / DSM 22644 / CIP 104116 / JCM 14847 / LMG 12228 / 1C / PRS 101 / PAO1), UniProt A0A0F7KYQ8). Put plainly: Enzyme activity: determination of IC50, fluorescence assay with CCF2-FA substrate (VIM-1). The assay is classed as biochemical.
The target of another assay is IMP-1 (Serratia marcescens, UniProt P52699). The assay can be described thus: biochemical. The assay is classed as biochemical. Conditions: read-out: IMP-1 IC50.
[4] abbreviates: NDM-1 enzyme, CCF2-FA fluorescence assay, read-out: NDM-1 IC50.
Setting [5] is: Klebsiella pneumoniae expressing VIM-1 (IHMA599644), 95% growth inhibition.
[6] abbreviates: Escherichia coli expressing NDM-1 (CLB30016), 95% growth inhibition.
The mark [7] stands for this setting: Serratia marcescens expressing IMP-1 (CL5741), 95% growth inhibition.
[8] abbreviates: VIM-1 enzyme, CCF2-FA fluorescence assay, read-out: VIM-1 IC50.
[9] abbreviates: IMP-1 enzyme, CCF2-FA fluorescence assay.
[10] abbreviates: NDM-1 enzyme, CCF2-FA substrate, read-out: NDM-1 IC50.
The mark [11] stands for this setting: Klebsiella pneumoniae IHMA599644 (VIM-1), 95% growth inhibition.
[12] abbreviates: (CLB30016, NDM-1), 95% growth inhibition.
Setting [13] is: Serratia marcescens CL5741 (IMP-1), 95% growth inhibition.
The mark [14] stands for this setting: IMP-1 enzyme, CCF2-FA substrate.
Where [15] appears, read: VIM-1 enzyme, CCF2-FA substrate, read-out: VIM-1 IC50.
Where [16] appears, read: fluorescence assay with CCF2-FA substrate, read-out: NDM-1 IC50.
The mark [17] stands for this setting: IHMA599644 (VIM-1), 95% inhibition of bacterial growth.
The mark [18] stands for this setting: CLB30016 (NDM-1), 95% inhibition of bacterial growth.
Where [19] appears, read: CL5741 (IMP-1), 95% inhibition of bacterial growth.
Setting [20] is: VIM-1 IC50, fluorescence assay with CCF2-FA substrate.
The mark [21] stands for this setting: fluorescence assay with CCF2-FA substrate.
Setting [22] is: concentration giving 95% inhibition of bacterial growth.
Setting [23] is: fluorescence assay with CCF2-FA substrate, read-out: VIM-1 IC50.

Chain of IMP-1 (P52699 whole entry, looked up): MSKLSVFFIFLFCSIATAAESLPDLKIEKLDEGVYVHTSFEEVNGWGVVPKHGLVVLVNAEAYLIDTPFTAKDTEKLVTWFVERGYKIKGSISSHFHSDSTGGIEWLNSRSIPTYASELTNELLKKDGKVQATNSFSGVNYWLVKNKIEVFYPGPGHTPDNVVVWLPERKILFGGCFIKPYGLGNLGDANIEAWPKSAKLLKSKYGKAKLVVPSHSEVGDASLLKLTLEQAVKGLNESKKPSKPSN
Chain of NDM-1 (C7C422 whole entry, looked up, species assumed): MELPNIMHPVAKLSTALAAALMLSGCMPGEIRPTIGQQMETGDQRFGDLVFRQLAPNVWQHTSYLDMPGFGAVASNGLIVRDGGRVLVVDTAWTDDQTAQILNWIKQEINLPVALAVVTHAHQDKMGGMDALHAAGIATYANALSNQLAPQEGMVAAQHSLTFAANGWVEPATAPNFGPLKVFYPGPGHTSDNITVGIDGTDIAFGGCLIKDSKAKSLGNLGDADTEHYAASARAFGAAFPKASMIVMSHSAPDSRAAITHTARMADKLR

As to `Cn1cncc1C[C@@H](NCc1ccc(-c2cccc(S(N)(=O)=O)c2-c2nnn[nH]2)cc1)C(=O)O` [Example 363, 3-methyl-N-{[3′-sulfamoyl-2′-(1H-tetrazol-5-yl)biphenyl-4-yl]methyl}-D-histidine], the pIC50 is 7.67 on NDM-1 (setting [4]), 6.31 on VIM-1 (setting [8]) and 6.63 at IMP-1 (setting [9]). In addition, in assay [1] (setting [5]), the “Klebsiella pneumoniae MITC95” value was 100 µM. In addition, the “Escherichia coli MITC95” value in assay [2] (setting [6]) is 3.125 µM. Besides, in assay [3] (setting [7]), the “Serratia marcescens MITC95” value was found to be 6.25 µM.
For `NC[C@H]1CC[C@H](Cc2ccc(-c3ccc(C4CNC4)cc3)c(-c3nnn[nH]3)c2S(N)(=O)=O)CC1` [Example 601, 4-(((1r,4r)-4-(aminomethyl)cyclohexyl)methyl)-4′-(azetidin-3-yl)-2-(1H-tetrazol-5-yl)-[1,1′-biphenyl]-3-sulfonamide], the negative-log IC50 (pIC50) is 8.78 on NDM-1 (setting [10]); 9.23 against VIM-1 (VIM-1 IC50, VIM-1 enzyme, CCF2-FA substrate); 7.88 at IMP-1 (setting [14]). The “Klebsiella pneumoniae MITC95” value in assay [1] (setting [11]) is 1.563 µM. The “Escherichia coli MITC95” value in assay [2] (setting [12]) came out at 1.563 µM. Besides, the “Serratia marcescens MITC95” value in assay [3] (setting [13]) was found to be 3.125 µM.
With `N[C@@]1(c2ccc(-c3ccc(C(F)(F)F)c(S(N)(=O)=O)c3-c3nn[nH]n3)cc2)CCNC1` [Example 548, 3-[4-[(3R)-3-aminopyrrolidin-3-yl]phenyl]-2-(2H-tetrazol-5-yl)-6-(trifluoromethyl)benzenesulfonamide], the pIC50 is 8.12 on NDM-1 (setting [10]), 9.29 at VIM-1 (setting [15]) and 7.98 at IMP-1 (setting [14]). For the same compound, the “Klebsiella pneumoniae MITC95” value in assay [1] (setting [11]) was 1.563 µM. The “Escherichia coli MITC95” value in assay [2] (setting [12]) was determined as 3.125 µM. In addition, the “Serratia marcescens MITC95” value in assay [3] (setting [13]) is 3.125 µM.
As for `NS(=O)(=O)c1cccc(-c2cccc3sc(N[C@H]4CC[C@H](N)CC4)nc23)c1-c1nnn[nH]1` [Example 641, 3-[2-[(4-aminocyclohexyl)amino]-1,3-benzothiazol-4-yl]-2-(1H-tetrazol-5-yl)benzenesulfonamide], the results for the pIC50 on NDM-1 (setting [10]), on VIM-1 (setting [15]) and at IMP-1 (setting [14]) were 8.99, 8.35 and 7.58, respectively. In addition, the “Klebsiella pneumoniae MITC95” value in assay [1] (setting [11]) was 25 µM. In assay [2] (setting [12]), the “Escherichia coli MITC95” value stood at 6.25 µM. Further, in assay [3] (setting [13]), the “Serratia marcescens MITC95” value was 25 µM.
As to `NS(=O)(=O)c1c(C(F)(F)F)ccc(-c2ccc(C3CCNCC3)nc2)c1-c1nnn[nH]1` [Example 744, 3-(6-piperidin-4-ylpyridin-3-yl)-2-(1H-tetrazol-5-yl)-6-(trifluoromethyl)benzenesulfon-amide], the pIC50 was 7.79 on NDM-1 (setting [16]), 9.04 at VIM-1 (setting [20]) and 7.74 on IMP-1 (setting [21]). For the same compound, the “Klebsiella pneumoniae MITC95” value in assay [1] (setting [17]) turned out to be 12.5 µM. In assay [2] (setting [18]), the “Escherichia coli MITC95” value was 6.25 µM. Besides, the “Serratia marcescens MITC95” value in assay [3] (setting [19]) is 12.5 µM.
In the case of `NC(=O)CCc1ccc(-c2ccc(C(F)(F)F)c(S(N)(=O)=O)c2-c2nn[nH]n2)cc1` [Example 449, 3-(3′-sulfamoyl-2′-(2H-tetrazol-5-yl)-4′-(trifluoromethyl)-[1,1′-biphenyl]-4-yl)propanamide], the pIC50 at NDM-1 (setting [4]) is 9.18; on VIM-1 (VIM-1 IC50, VIM-1 enzyme, CCF2-FA fluorescence assay), 9.09; at IMP-1 (setting [9]), 9.27. Also, in assay [1] (setting [5]), the “Klebsiella pneumoniae MITC95” value was found to be 6.25 µM. In addition, the “Escherichia coli MITC95” value in assay [2] (setting [6]) was found to be 0.7813 µM. Besides, the “Serratia marcescens MITC95” value in assay [3] (setting [7]) came to 0.1953 µM.
As for `CN1CC(NCc2ccc(-c3cccc(S(N)(=O)=O)c3-c3nnn[nH]3)cc2)C1` [Example 331, 4′-(((1-methylazetidin-3-yl)amino)methyl)-2-(1H-tetrazol-5-yl)-[1,1′-biphenyl]-3-sulfonamide], the pIC50 at NDM-1 (setting [4]) was 7.51; at VIM-1 (setting [8]), 5.93; at IMP-1 (setting [9]), 6.41. The “Klebsiella pneumoniae MITC95” value in assay [1] (setting [5]) came out at 150 µM. In addition, in assay [2] (setting [6]), the “Escherichia coli MITC95” value came to 1.172 µM. Further, the “Serratia marcescens MITC95” value in assay [3] (setting [7]) was found to be 6.25 µM.
With `N=C(N)NC[C@H]1CC[C@@H](c2ccc(C(F)(F)F)c(S(N)(=O)=O)c2-c2nnn[nH]2)CC1` [Example 502, 3-(cis 4-(guanidinomethyl)cyclohexyl)-2-(1H-tetrazol-5-yl)-6-(trifluoromethyl)benzenesulfonamide], the values for the negative logarithm of the IC50 (pIC50) on NDM-1, at VIM-1 (setting [15]) and at IMP-1 (setting [14]) were 9.28, 8.84 and 8.93, respectively. Also, the “Klebsiella pneumoniae MITC95” value in assay [1] (setting [11]) is 9.375 µM. Further, in assay [2] (setting [12]), the “Escherichia coli MITC95” value came out at 1.563 µM. For the same compound, in assay [3] (setting [13]), the “Serratia marcescens MITC95” value was determined as 1.563 µM.
For the compound `Nc1ccc(-c2ccc(CC[C@H]3CC[C@H](N)CC3)c(S(N)(=O)=O)c2-c2nnn[nH]2)cn1` [Example 577, 6-(2-((1r,4s)-4-aminocyclohexyl)ethyl)-3-(6-aminopyridin-3-yl)-2-(1H-tetrazol-5-yl)benzenesulfonamide], the pIC50 at NDM-1 (setting [10]) was 8.61; at VIM-1 (setting [15]), 7.98; on IMP-1 (setting [14]), 7.53. Besides, the “Klebsiella pneumoniae MITC95” value in assay [1] (setting [11]) came out at 12.5 µM. Also, the “Escherichia coli MITC95” value in assay [2] (setting [12]) was found to be 0.7813 µM. Besides, the “Serratia marcescens MITC95” value in assay [3] (setting [13]) turned out to be 3.125 µM.
`N[C@]1(c2ccc(-c3ccc(C(F)(F)F)c(S(N)(=O)=O)c3-c3nn[nH]n3)cc2)CCNC1` [Example 547, 3-[4-[(3S)-3-aminopyrrolidin-3-yl]phenyl]-2-(2H-tetrazol-5-yl)-6-(trifluoromethyl)benzenesulfonamide]: the pIC50 at NDM-1 (setting [10]) is 8.03; at VIM-1 (setting [15]) it was 8.93; on IMP-1 (setting [14]), 8.04. Also, in assay [1] (setting [11]), the “Klebsiella pneumoniae MITC95” value amounted to 6.25 µM. In assay [2] (setting [12]), the “Escherichia coli MITC95” value is 6.25 µM. Besides, the “Serratia marcescens MITC95” value in assay [3] (setting [13]) is 3.125 µM.
For the compound `NS(=O)(=O)c1cccc(C2CCC2)c1-c1nnn[nH]1` [Example 149, 3-cyclobutyl-2-(1H-tetrazol-5-yl)benzenesulfonamide], the pIC50 at NDM-1 (setting [16]) was 7.63; at VIM-1 (setting [23]), 6.06; on IMP-1 (setting [21]), 6.31. Also, the “Klebsiella pneumoniae expressing VIM-1 (IHMA 599644) MITC95” value in assay [1] (setting [22]) came to 150 µM. In assay [2] (setting [22]), the “Escherichia coli expressing NDM-1 (CLB 30016) MITC95” value came to 1.563 µM. Besides, the “Serratia marcescens expressing IMP-1 (CL5741) MITC95” value in assay [3] (setting [22]) worked out at 6.25 µM.
Regarding `NS(=O)(=O)c1c(C(F)(F)F)ccc([C@H]2CC[C@@H](C3CCNCC3)CC2)c1-c1nnn[nH]1` [Example 831, 3-((1s,4s)-4-(piperidin-4-yl)cyclohexyl)-2-(1H-tetrazol-5-yl)-6-(trifluoromethyl)benzenesulfonamide], the values for the pIC50 at NDM-1 (setting [16]), at VIM-1 (setting [23]) and on IMP-1 (setting [21]) were 9.09, 8.55 and 9.05, respectively. Further, in assay [1] (setting [17]), the “Klebsiella pneumoniae MITC95” value worked out at 50 µM. Besides, in assay [2] (setting [18]), the “Escherichia coli MITC95” value is 2.344 µM. The “Serratia marcescens MITC95” value in assay [3] (setting [19]) was determined as 3.125 µM.
`Nc1nccc(-c2cccc(-c3ccc(C(F)(F)F)c(S(N)(=O)=O)c3-c3nnn[nH]3)c2)n1` [Example 753, 3′-(2-aminopyrimidin-4-yl)-2-(1H-tetrazol-5-yl)-4-(trifluoromethyl)biphenyl-3-sulfonamdie]: the results for the pIC50 at NDM-1 (setting [16]), on VIM-1 (setting [23]) and on IMP-1 (setting [21]) were 9.00, 9.12 and 8.69, respectively. The “Klebsiella pneumoniae MITC95” value in assay [1] (setting [17]) was determined as 100 µM. Besides, the “Escherichia coli MITC95” value in assay [2] (setting [18]) was determined as 12.5 µM. Further, the “Serratia marcescens MITC95” value in assay [3] (setting [19]) was found to be 12.5 µM.
`Nc1ncnc2cc(-c3ccc(C(F)(F)F)c(S(N)(=O)=O)c3-c3nnn[nH]3)ccc12` [Example 749, 3-(4-aminoquinazolin-7-yl)-2-(1H-tetrazol-5-yl)-6-(trifluoromethyl)benzenesulfon-amide]: the figures for the pIC50 at NDM-1 (setting [16]), against VIM-1 (setting [20]) and on IMP-1 (setting [21]) were 8.63, 9.58 and 8.38, respectively. The “Klebsiella pneumoniae MITC95” value in assay [1] (setting [17]) amounted to 6.25 µM. The “Escherichia coli MITC95” value in assay [2] (setting [18]) was determined as 3.125 µM. Besides, the “Serratia marcescens MITC95” value in assay [3] (setting [19]) came to 12.5 µM.
As to `NS(=O)(=O)c1c(C(F)(F)F)ccc(-c2ccc(C3CN(C4CCNCC4)C3)cc2)c1-c1nnn[nH]1` [Example 802, 4′-(1-piperidin-4-ylazetidin-3-yl)-2-(1H-tetrazol-5-yl)-4-(trifluoromethyl)biphenyl-3-sulfonamide], the pIC50 at NDM-1 (setting [16]) was 8.49; at VIM-1 (setting [23]), 7.76; at IMP-1 (setting [21]) it was 8.37. Also, in assay [1] (setting [17]), the “Klebsiella pneumoniae MITC95” value is 100 µM. Moreover, the “Escherichia coli MITC95” value in assay [2] (setting [18]) was 6.25 µM. In addition, in assay [3] (setting [19]), the “Serratia marcescens MITC95” value stood at 6.25 µM.
